For this test, the target named is Tie-2 (Homo sapiens, UniProt Q02763). Put plainly: Tie-2 tyrosine kinase inhibition (ATP consumption by luciferase/luciferin chemiluminescence or 33P-ATP incorporation into pEY substrate). In kind it is biochemical. The settings on record: human enzyme Tie-2; inhibition given as class symbol. As to the method: Tyrosine kinase activity is determined by 1) measurement of kinase-dependent ATP consumption by in the presence of a generic substrate such as polyglutamine, tyrosin (pEY), by luciferase/luciferin-mediated chemiluminescence or; 2) incorporation of radioactive phosphate derived from ^33P-ATP into a generic substrate which has been adsorbed onto the well surface of polystyrene microtiter plates. Phosphorylated substrate products are quantified by scintillation spectrometry.
Sequence of Tie-2 (Q02763 23-1124): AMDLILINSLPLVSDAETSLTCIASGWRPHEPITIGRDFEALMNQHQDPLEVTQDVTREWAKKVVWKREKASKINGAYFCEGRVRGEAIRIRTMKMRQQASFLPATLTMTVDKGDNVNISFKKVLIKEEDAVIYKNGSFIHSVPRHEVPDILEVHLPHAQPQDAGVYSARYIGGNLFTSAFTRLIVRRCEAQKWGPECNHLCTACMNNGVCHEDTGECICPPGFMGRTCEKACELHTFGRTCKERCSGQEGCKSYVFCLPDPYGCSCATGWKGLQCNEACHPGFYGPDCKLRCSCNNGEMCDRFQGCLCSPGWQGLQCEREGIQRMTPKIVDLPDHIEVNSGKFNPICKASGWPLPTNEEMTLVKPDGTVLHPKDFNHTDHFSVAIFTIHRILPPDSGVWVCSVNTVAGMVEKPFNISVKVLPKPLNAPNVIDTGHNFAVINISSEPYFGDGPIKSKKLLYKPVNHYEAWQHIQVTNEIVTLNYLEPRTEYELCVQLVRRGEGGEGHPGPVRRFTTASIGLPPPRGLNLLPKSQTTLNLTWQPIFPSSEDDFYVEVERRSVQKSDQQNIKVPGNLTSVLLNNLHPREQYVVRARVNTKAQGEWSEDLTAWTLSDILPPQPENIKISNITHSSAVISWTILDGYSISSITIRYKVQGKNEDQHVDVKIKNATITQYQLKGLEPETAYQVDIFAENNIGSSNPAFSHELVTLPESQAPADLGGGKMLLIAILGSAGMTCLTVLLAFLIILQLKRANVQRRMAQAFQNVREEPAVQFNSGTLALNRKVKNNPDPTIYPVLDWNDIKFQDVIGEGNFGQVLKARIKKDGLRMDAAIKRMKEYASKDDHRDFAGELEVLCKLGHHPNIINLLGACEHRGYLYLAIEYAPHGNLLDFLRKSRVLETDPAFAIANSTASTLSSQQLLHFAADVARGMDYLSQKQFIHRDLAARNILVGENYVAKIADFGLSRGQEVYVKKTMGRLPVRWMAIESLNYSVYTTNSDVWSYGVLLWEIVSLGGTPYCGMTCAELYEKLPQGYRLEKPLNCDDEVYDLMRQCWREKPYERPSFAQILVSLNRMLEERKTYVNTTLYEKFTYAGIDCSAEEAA
Inhibition is indicated as IC50 with following key: A=IC50 less than 50 nM, B=IC50 greater than 50 nM, but less than or equal to 1000 nM, C=IC50 greater than 1000 nM, but less than 10,000 nM, and D=IC50 10,000 nM or greater. The abbreviation for human enzyme, Tie-2, is defined as tyrosine kinase with immunoglobulin and EGF repeats.
Usually IC50 stands for the midpoint of a concentration-inhibition curve. The low end stands for higher potency, the high end for lower potency. Take `c1ccc2c(NC3CCCCC3)nc(-c3ccncc3)nc2c1` [Compound 1, N-cyclohexyl-2-pyridin-4-ylquinazolin-4-amine]: the IC50 was 1 to 10 µM.
Take `c1ccc2c(NCCN3CCCC3)nc(-c3ccncc3)nc2c1` [Compound 2, 2-pyridin-4-yl-N-(2-pyrrolidin-1-ylethyl)quinazolin-4-amine]: the IC50 is at least 10 µM.
The same measure for `c1ccc2c(NC3CCCC3)nc(-c3ccncc3)nc2c1` [Compound 3, N-cyclopentyl-2-pyridin-4-ylquinazolin-4-amine]: 1 to 10 µM; for `c1ccc2c(NCC3CCCCC3)nc(-c3ccncc3)nc2c1` [Compound 4, N-(cyclohexylmethyl)-2-pyridin-4-ylquinazolin-4-amine]: 1 to 10 µM.
In the case of `OCCNc1nc(-c2ccncc2)nc2ccccc12` [Compound 5, 2-[(2-pyridin-4-ylquinazolin-4-yl)amino]ethanol], the half-inhibitory concentration (IC50) was at least 10 µM.
The same measure for `OCCCNc1nc(-c2ccncc2)nc2ccccc12` [Compound 6, 3-[(2-pyridin-4-ylquinazolin-4-yl)amino]propan-1-ol]: at least 10 µM; for `Fc1ccc(CNc2nc(-c3ccncc3)nc3ccccc23)cc1` [Compound 7, N-[(4-fluorophenyl)methyl]-2-pyridin-4-ylquinazolin-4-amine]: 1 to 10 µM.
The same measure for `CN(C)CCNc1nc(-c2ccncc2)nc2ccccc12` [Compound 8, N,N-dimethyl-N′-(2-pyridin-4-ylquinazolin-4-yl)ethane-1,2-diamine]: at least 10 µM; for `c1ccc2c(c1)CCC2Nc1nc(-c2ccncc2)nc2ccccc12` (stereo not shown) [Compound 9, N-(2,3-dihydro-1H-inden-1-yl)-2-pyridin-4-ylquinazolin-4-amine]: 0.05 to 1 µM.
In the case of `c1ccc2c(NCCN3CCOCC3)nc(-c3ccncc3)nc2c1` [Compound 10, N-(2-morpholin-4-ylethyl)-2-pyridin-4-ylquinazolin-4-amine] it was at least 10 µM; in that of `Oc1ccc(N2CCN(c3nc(-c4ccncc4)nc4ccccc34)CC2)cc1` [Compound 11, 4-[4-(2-pyridin-4-ylquinazolin-4-yl)piperazin-1-yl]phenol], at least 10 µM.
`c1ccc2c(c1)CC[C@@H](Nc1nc(-c3ccncc3)nc3ccccc13)C2` [Compound 12, 2-pyridin-4-yl-N-[(2R)-1,2,3,4-tetrahydronaphthalen-2-yl]quinazolin-4-amine]: the IC50 is 0.05 to 1 µM.
The molecule `c1ccc2c(N3CCNCC3)nc(-c3ccncc3)nc2c1` [Compound 13, 4-piperazin-1-yl-2-pyridin-4-ylquinazoline] gave an IC50 of at least 10 µM.
In turn, `CC(C)(C)OC(=O)N1CCN(c2nc(-c3ccncc3)nc3ccccc23)CC1` [Compound 14, 1,1-dimethylethyl 4-(2-pyridin-4-ylquinazolin-4-yl)piperazine-1-carboxylate] displayed an IC50 of at least 10 µM.
`c1ccc2c(c1)CC[C@H](Nc1nc(-c3ccncc3)nc3ccccc13)C2` [Compound 15, 2-pyridin-4-yl-N-[(2S)-1,2,3,4-tetrahydronaphthalen-2-yl]quinazolin-4-amine] came in with an IC50 of 1 to 10 µM.
`c1ccc2c(c1)CC[C@H]2Cc1nc(-c2ccncc2)nc2ccccc12` [Compound 16, 4-[(1S)-2,3-dihydro-1H-inden-1-ylmethyl]-2-pyridin-4-ylquinazoline] showed an IC50 of 1 to 10 µM.
Turning to `O[C@H]1Cc2ccccc2[C@H]1Nc1nc(-c2ccncc2)nc2ccccc12` [Compound 17, (1R,2S)-1-[(2-pyridin-4-ylquinazolin-4-yl)amino]-2,3-dihydro-1H-inden-2-ol], the IC50 is at least 10 µM.
In the case of `O[C@@H]1Cc2ccccc2[C@@H]1Nc1nc(-c2ccncc2)nc2ccccc12` [Compound 18, (1S,2R)-1-[(2-pyridin-4-ylquinazolin-4-yl)amino]-2,3-dihydro-1H-inden-2-ol], the IC50 is under 0.05 µM.
In turn, `CC(C)(C)OC(=O)N1CCC(Nc2nc(-c3ccncc3)nc3ccccc23)CC1` [Compound 19, 1,1-dimethylethyl 4-[(2-pyridin-4-ylquinazolin-4-yl)amino]piperidine-1-carboxylate] came in with an IC50 of 1 to 10 µM.
`COc1cc(OC)c(CNc2nc(-c3ccncc3)nc3ccccc23)c(OC)c1` [Compound 20, 2-pyridin-4-yl-N-{[2,4,6-tris(methyloxy)phenyl]methyl}quinazolin-4-amine] gave an IC50 of at least 10 µM.
The same measure for `c1ccc2c(NC3CCNCC3)nc(-c3ccncc3)nc2c1` [Compound 21, N-piperidin-4-yl-2-pyridin-4-ylquinazolin-4-amine]: at least 10 µM.
Turning to `c1ccc(CO[C@H]2CCC[C@@H]2Nc2nc(-c3ccncc3)nc3ccccc23)cc1` [Compound 22, N-{(1S,2S)-2-[(phenylmethyl)oxy]cyclopentyl}-2-pyridin-4-ylquinazolin-4-amine], the IC50 was at least 10 µM.
With `c1ccc(Nc2ccc(Nc3nc(-c4ccncc4)nc4ccccc34)cc2)cc1` [Compound 23, N-phenyl-N′-(2-pyridin-4-ylquinazolin-4-yl)benzene-1,4-diamine], the half-maximal inhibitory concentration (IC50) is at least 10 µM.
Molecule `Oc1cc2ccccc2cc1Nc1nc(-c2ccncc2)nc2ccccc12` [Compound 24, 3-[(2-pyridin-4-ylquinazolin-4-yl)amino]naphthalen-2-ol] showed an IC50 of 1 to 10 µM.
Molecule `CC(C)Oc1ccc(Nc2nc(-c3ccncc3)nc3ccccc23)cc1` [Compound 25, N-{4-[(1-methylethyl)oxy]phenyl}-2-pyridin-4-ylquinazolin-4-amine] came in with an IC50 of 1 to 10 µM.
`O[C@@H]1Cc2ccccc2[C@@H]1Nc1nc(-c2ccccc2)nc2ccccc12` [Compound 26, (1S,2R)-1-[(2-phenylquinazolin-4-yl)amino]-2,3-dihydro-1H-inden-2-ol] registered an IC50 of at least 10 µM.
For the molecule `O[C@H]1Cc2ccccc2[C@H]1Nc1nc(-c2ccccc2)nc2ccccc12` [Compound 27, (1R,2S)-1-[(2-phenylquinazolin-4-yl)amino]-2,3-dihydro-1H-inden-2-ol], the IC50 is at least 10 µM.
For the molecule `O[C@@H]1CCC[C@H]1Nc1nc(-c2ccccc2)nc2ccccc12` [Compound 28, (1R,2R)-2-[(2-phenylquinazolin-4-yl)amino]cyclopentanol], the IC50 is at least 10 µM.
Molecule `O[C@@H]1CCCC[C@H]1Nc1nc(-c2ccccc2)nc2ccccc12` [Compound 29, (1R,2R)-2-[(2-phenylquinazolin-4-yl)amino]cyclohexanol] showed an IC50 of at least 10 µM.
Consider `OC[C@H]1C[C@@H](Nc2nc(-c3ccccc3)nc3ccccc23)[C@H](O)[C@@H]1O` [Compound 30, (1S,2R,3R,5R)-3-(hydroxymethyl)-5-[(2-phenylquinazolin-4-yl)amino]cyclopentane-1,2-diol], for which the IC50 was at least 10 µM.
In turn, `O[C@@H]1Cc2ccccc2[C@@H]1Nc1nc(-c2ccncc2)nc2ccc(Cl)cc12` [Compound 31, (1S,2R)-1-[(6-chloro-2-pyridin-4-ylquinazolin-4-yl)amino]-2,3-dihydro-1H-inden-2-ol] came in with a half-maximal inhibitory concentration (IC50) of under 0.05 µM.
In turn, `c1ccc2c(NCCN3CCNCC3)nc(-c3ccncc3)nc2c1` [Compound 32, N-(2-piperazin-1-ylethyl)-2-pyridin-4-ylquinazolin-4-amine] yielded a half-maximal inhibitory concentration (IC50) of at least 10 µM.
In the case of `O[C@@H]1Cc2ccccc2[C@@H]1Nc1nc(-c2cccnc2)nc2ccccc12` [Compound 33, (1S,2R)-1-[(2-pyridin-3-ylquinazolin-4-yl)amino]-2,3-dihydro-1H-inden-2-ol], the 50% inhibitory concentration (IC50) fell in the range of 1 to 10 µM.
In turn, `O[C@H]1Cc2ccccc2[C@H]1Nc1nc(-c2cccnc2)nc2ccccc12` [Compound 34, (1R,2S)-1-[(2-pyridin-3-ylquinazolin-4-yl)amino]-2,3-dihydro-1H-inden-2-ol] registered an IC50 of at least 10 µM.
Consider `O[C@@H]1CCC[C@H]1Nc1nc(-c2cccnc2)nc2ccccc12` [Compound 35, (1R,2R)-2-[(2-pyridin-3-ylquinazolin-4-yl)amino]cyclopentanol], for which the IC50 is at least 10 µM.
`O[C@@H]1CCCC[C@H]1Nc1nc(-c2cccnc2)nc2ccccc12` [Compound 36, (1R,2R)-2-[(2-pyridin-3-ylquinazolin-4-yl)amino]cyclohexanol] gave an IC50 of at least 10 µM.
As to `O[C@@H]1Cc2ccccc2[C@@H]1Nc1nc(-c2ccccn2)nc2ccccc12` [Compound 37, (1S,2R)-1-[(2-pyridin-2-ylquinazolin-4-yl)amino]-2,3-dihydro-1H-inden-2-ol], the IC50 is at least 10 µM.
Turning to `O[C@H]1Cc2ccccc2[C@H]1Nc1nc(-c2ccccn2)nc2ccccc12` [Compound 38, (1R,2S)-1-[(2-pyridin-2-ylquinazolin-4-yl)amino]-2,3-dihydro-1H-inden-2-ol], the IC50 was at least 10 µM.
Turning to `OC[C@@H](O)CNc1nc(-c2ccncc2)nc2ccccc12` [Compound 39, (2S)-3-[(2-pyridin-4-ylquinazolin-4-yl)amino]propane-1,2-diol], the IC50 is at least 10 µM.
The same measure for `OC[C@@H]1Cc2ccccc2N1c1nc(-c2ccncc2)nc2ccccc12` [Compound 40, [(2S)-1-(2-pyridin-4-ylquinazolin-4-yl)-2,3-dihydro-1H-indol-2-yl]methanol]: at least 10 µM; for `C[C@H](CO)Nc1nc(-c2ccncc2)nc2ccccc12` [Compound 41, (2R)-2-[(2-pyridin-4-ylquinazolin-4-yl)amino]propan-1-ol]: at least 10 µM.
`C[C@H](O)CNc1nc(-c2ccncc2)nc2ccccc12` [Compound 42, (2S)-1-[(2-pyridin-4-ylquinazolin-4-yl)amino]propan-2-ol] had an IC50 of at least 10 µM.
In the case of `CCc1cc(-c2nc(N[C@H]3c4ccccc4C[C@H]3O)c3ccccc3n2)ccn1` [Compound 43, (1S,2R)-1-{[2-(2-ethylpyridin-4-yl)quinazolin-4-yl]amino}-2,3-dihydro-1H-inden-2-ol] it was at least 10 µM.

The values are drawn from patent publication US7763627B2, “Tie-2 modulators and methods of use” (Exelixis, Inc., priority 2003, dated 2010).
